Measured values: PubChem BioAssay AID1963868 (Molecular Pharmacology Branch, DTP, NCI, 2024)

Test system: KRAS PDC tumor spheroids (HUVEC+MSC), viability
Assay: Anticancer human tumor 254851-301-R-J1-PDC patient-derived colon carcinoma cell line growth inhibition [KRAS2]
Conditions: for IC50: curve of first compound; for viability, T/C: stronger effect = lower value
How it was run: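 KRAS-mutant tumor cells were grown as spheroids with HUVEC endothelial cells and human MSCs as stroma. Targeted agents were tested alone and with KRAS pathway inhibitors. Doses started at or near clinical Cmax, or 10 microM, descending half-log.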

[1] = second compound 0.1 µM, first compound 0.01 µM
[2] = second compound 0.1 µM, first compound 0.0316 µM
[3] = second compound 0.1 µM, first compound 0.1 µM
[4] = second compound 0.1 µM, first compound 0.316 µM
[5] = second compound 0.1 µM, first compound 1 µM
[6] = second compound 0.1 µM, first compound 3.16 µM
[7] = second compound 0.316 µM, first compound 0.01 µM
[8] = second compound 0.316 µM, first compound 0.0316 µM
[9] = second compound 0.316 µM, first compound 0.1 µM
[10] = second compound 0.316 µM, first compound 0.316 µM
[11] = second compound 0.316 µM, first compound 1 µM
[12] = second compound 0.316 µM, first compound 3.16 µM
[13] = second compound 1 µM, first compound 0.01 µM
[14] = second compound 1 µM, first compound 0.0316 µM
[15] = second compound 1 µM, first compound 0.1 µM
[16] = second compound 1 µM, first compound 0.316 µM
[17] = second compound 1 µM, first compound 1 µM
[18] = second compound 1 µM, first compound 3.16 µM
[19] = second compound 3.16 µM, first compound 0.01 µM
[20] = second compound 3.16 µM, first compound 0.0316 µM
[21] = second compound 3.16 µM, first compound 0.1 µM
[22] = second compound 3.16 µM, first compound 0.316 µM
[23] = second compound 3.16 µM, first compound 1 µM
[24] = second compound 3.16 µM, first compound 3.16 µM
[25] = second compound 10 µM, first compound 0.01 µM
[26] = second compound 10 µM, first compound 0.0316 µM
[27] = second compound 10 µM, first compound 0.1 µM
[28] = second compound 10 µM, first compound 0.316 µM
[29] = second compound 10 µM, first compound 1 µM
[30] = second compound 10 µM, first compound 3.16 µM
[31] = second compound 0.1 µM, first compound 10 µM
[32] = second compound 0.316 µM, first compound 10 µM
[33] = second compound 1 µM, first compound 10 µM
[34] = second compound 3.16 µM, first compound 10 µM
[35] = second compound 10 µM, first compound 10 µM
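Note: spheroids exposed to compounds for seven days before readout.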
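Throughout, for viability, T/C: 100% = DMSO vehicle control luminescence of the spheroids.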

Row | SMILES | IC50 (second compound 0.1 µM) [µM] | IC50 (second compound 0.316 µM) [µM] | IC50 (second compound 1 µM) [µM] | IC50 (second compound 3.16 µM) [µM] | IC50 (second compound 10 µM) [µM] | viability, T/C [2] [%] | viability, T/C [3] [%] | viability, T/C [4] [%] | viability, T/C [5] [%] | viability, T/C [8] [%] | viability, T/C [9] [%] | viability, T/C [10] [%] | viability, T/C [11] [%] | viability, T/C [14] [%] | viability, T/C [15] [%] | viability, T/C [16] [%] | viability, T/C [17] [%] | viability, T/C [20] [%] | viability, T/C [21] [%] | viability, T/C [22] [%] | further results
1 | CC1COCCN1c1cc(-c2ccnn2C)c2ccnc(-c3ccn[nH]3)c2n1 (stereo not given) + COc1cc2nc(C)nc(NC(C)c3cc(N)cc(C(F)(F)F)c3)c2cc1OC1CCOC1 | 0.0374 | 0.425 | 0.35 | 0.114 | 0.12 | 46.4 | 32.6 | 42.3 | 36.8 | 112 | 81 | 58.5 | 31.8 | 104 | 77 | 50.5 | 38 | 64.3 | 56.3 | 29.3 | viability, T/C [1]: 70.2%; viability, T/C [6]: 14.2%; viability, T/C [7]: 99.8%; viability, T/C [12]: 25%; viability, T/C [13]: 103%; viability, T/C [18]: 24%; viability, T/C [19]: 80%; viability, T/C [23]: 17.9%; viability, T/C [24]: 25.7%; viability, T/C [25]: 99.8%; viability, T/C [26]: 92%; viability, T/C [27]: 51.3%; viability, T/C [28]: 33.5%; viability, T/C [29]: 21.8%; viability, T/C [30]: 20.9%
2 | CC1OCC2(CCN(c3cnc(Sc4ccnc(N)c4Cl)c(N)n3)CC2)C1N (stereo not given) + COc1cc2nc(C)nc(NC(C)c3cc(N)cc(C(F)(F)F)c3)c2cc1OC1CCOC1 | > 10 | > 10 | > 10 | > 10 | > 10 | 118 | 102 | 91.7 | 78.3 | 105 | 99.9 | 107 | 80 | 98.7 | 109 | 103 | 78.4 | 83.8 | 87.8 | 78.6 | viability, T/C [6]: 82.6%; viability, T/C [31]: 75.2%; viability, T/C [12]: 80.7%; viability, T/C [32]: 76.7%; viability, T/C [18]: 78.6%; viability, T/C [33]: 70.3%; viability, T/C [23]: 69.8%; viability, T/C [24]: 80%; viability, T/C [34]: 62.8%; viability, T/C [26]: 76.4%; viability, T/C [27]: 82.5%; viability, T/C [28]: 70.9%; viability, T/C [29]: 72%; viability, T/C [30]: 64.4%; viability, T/C [35]: 64.3%
3 | CCN1CCN(Cc2ccc(Nc3ncc(F)c(-c4cc(F)c5nc(C)n(C(C)C)c5c4)n3)nc2)CC1 + COc1cc2nc(C)nc(NC(C)c3cc(N)cc(C(F)(F)F)c3)c2cc1OC1CCOC1 | 0.573 | 0.578 | 0.549 | 0.12 | 0.0666 | 96 | 80.6 | 66.2 | 35.7 | 92.2 | 72.2 | 67.9 | 36.2 | 86.7 | 76.8 | 63.1 | 36.3 | 55.3 | 49.9 | 43.3 | viability, T/C (second compound 0.1 µM, first compound 0.00316 µM): 97.6%; viability, T/C [1]: 98.1%; viability, T/C (second compound 0.316 µM, first compound 0.00316 µM): 93.2%; viability, T/C [7]: 92.6%; viability, T/C (second compound 1 µM, first compound 0.00316 µM): 90.3%; viability, T/C [13]: 88.9%; viability, T/C (second compound 3.16 µM, first compound 0.00316 µM): 63.5%; viability, T/C [19]: 70%; viability, T/C [23]: 26%; viability, T/C (second compound 10 µM, first compound 0.00316 µM): 83.2%; viability, T/C [25]: 74.5%; viability, T/C [26]: 69.7%; viability, T/C [27]: 39.1%; viability, T/C [28]: 17.8%; viability, T/C [29]: 7.16%
4 | CCNC(=O)CC1N=C(c2ccc(Cl)cc2)c2cc(OC)ccc2-n2c(C)nnc21 (stereo not given) + COc1cc2nc(C)nc(NC(C)c3cc(N)cc(C(F)(F)F)c3)c2cc1OC1CCOC1 | 3.47 | 2.53 | 1.94 | 0.668 | 0.712 | 115 | 123 | 97.6 | 84.8 | 113 | 122 | 109 | 65.8 | 103 | 111 | 98.6 | 65.9 | 73 | 107 | 76 | viability, T/C [6]: 45%; viability, T/C [31]: 43%; viability, T/C [12]: 45.5%; viability, T/C [32]: 45.5%; viability, T/C [18]: 39.2%; viability, T/C [33]: 17.6%; viability, T/C [23]: 36.2%; viability, T/C [24]: 22.4%; viability, T/C [34]: 26.4%; viability, T/C [26]: 79.9%; viability, T/C [27]: 81.6%; viability, T/C [28]: 74.8%; viability, T/C [29]: 39.2%; viability, T/C [30]: 22.9%; viability, T/C [35]: 15.7%
5 | Cn1nccc1Nc1nccc(-c2cc3c(s2)C(C)(C)N(CCN2CCOCC2)C3=O)n1 + COc1cc2nc(C)nc(NC(C)c3cc(N)cc(C(F)(F)F)c3)c2cc1OC1CCOC1 | 1.97 | 1.81 | 1.53 | 0.564 | 0.445 | 101 | 97 | 82.6 | 71.5 | 98.4 | 83.2 | 77.2 | 74.3 | 85.5 | 86.7 | 72.7 | 70 | 87.8 | 80.2 | 66.5 | viability, T/C [6]: 35.9%; viability, T/C [31]: 3.63%; viability, T/C [12]: 29.1%; viability, T/C [32]: 3.95%; viability, T/C [18]: 17.6%; viability, T/C [33]: 4.11%; viability, T/C [23]: 35%; viability, T/C [24]: 4.08%; viability, T/C [34]: 2.21%; viability, T/C [26]: 72.2%; viability, T/C [27]: 71.2%; viability, T/C [28]: 56.9%; viability, T/C [29]: 31.1%; viability, T/C [30]: 2.79%; viability, T/C [35]: 1.54%
